Legend:
phospho-JUN [1] = assay: In vitro T-5224 treatment of freshly isolated mouse adhesion fibroblasts, phospho-flow cytometry; format: cell-based; conditions: T-5224 10 μM, 24 hours, versus vehicle control (FIG. 22a)
Description: (§1) Recruitment of Human Specimens. Human abdominal adhesion and control specimens were obtained at the Stanford Hospital under Stanford University's IRB approval. Clinical inclusion criteria were as follows: For adhesion specimens—patients must have had at least one prior abdominal surgery, for control specimens—patients must have had no history of prior abdominal surgery. For all patients, surgery must be elective, and there must be no evidence of active inflammation/infection at time of operation. Written, informed consent was obtained from the patient in the pre-op holding area prior to surgery. Tissue was collected in the operating room, placed directly into sterile saline, and kept on ice for transport. Sample preparation and FACS isolation. Adhesion or control tissue from mouse or human specimens was minced on ice. The tissue was then digested for 60 minutes in a 37° C. water bath agitator in 2 mg/mL collagenase (collagenase type IV, ThermoFisher) digest buffer in Medium 199 (HyClone, GE Healthcare) consisting of 5% fetal bovine serum (Gibco FBS, ThermoFisher), DNase I (Worthington), Poloxamer 188 (Cat. P5556-100ML, Sigma), HEPES, and CaCl2. […] Cells were counted and re-suspended in FACS buffer. […]

phospho-STAT5 [2] = assay: as above; format: cell-based; conditions: T-5224 10 μM, 24 hours, versus vehicle control (FIG. 22a)
Description: as §1

phospho-JUN [3] = assay: In vivo JUN suppression in mouse adhesion model, phospho-flow cytometry of adhesion fibroblasts; conditions: applied intra-abdominally (10 uM in DMSO, locally at time of adhesion surgery), wild-type and JUN mice, 24 hours, versus vehicle control (FIG. 5d, 22b)
Method: (§2) Mouse Model for Adhesions. A similar model for abdominal adhesion formation has been described previously by our laboratory. In brief, mice were anesthetized with inhaled isoflurane (Henry Schein Animal Health,) at a concentration of 1-2% in oxygen at 3 L/min. Ophthalmic ointment (Puralube petrolatum, Dechra Veterinary Products) was applied to the cornea to prevent desiccation. Buprenorphine (Buprenex, Reckitt Benckiser Pharmaceuticals Inc.) was administered subcutaneously prior to the surgery at a dose of 0.1 mg/kg. The mice were placed in the supine position on a clean operating surface. A heating pad was used beneath the surgical field to keep the animals warm throughout the procedure. The abdomens were shaved, and the skin of the abdomen was sterilized with three applications of betadine followed by 70% ethanol. During the procedure, the respiratory rate of the animals was monitored, and the isoflurane was titrated accordingly. A vertical midline skin incision was made in the abdomen with sharp scissors. The underlying abdominal wall was then opened vertically. The cecum was located and exteriorized. The cecal wall was abraded gently with 150-grit sandpaper. The parietal peritoneum along the abdominal wall was similarly abraded with sandpaper and three, single, interrupted, 4-0, silk sutures were placed into the right abdominal sidewall, which served as a nidus for adhesion formation. The cecum was then placed anatomically adjacent to the right abdominal wall. The abdomen was briefly irrigated with warmed, sterile, normal saline. The irrigant was removed by blotting with a gauze sponge. The abdominal wall incision was closed with running 6-0 Monocryl suture, and the skin incision was closed with 6-0 nylon, horizontal mattress sutures. The animals were monitored during recovery from anesthesia. Additional buprenorphine was given every 6-12 hours as needed for pain. For sham surgery, animals were treated in an identical manner; however, incisions were closed without manipulation of abdominal organs.
(§3) In Vivo JUN Induction and Suppression. Doxycycline (2 mg/mL) or T-5224 (Cayman Chem, 10 uM) resuspended in DMSO were applied locally to adhesion sites at the time of adhesion surgery for JUN induction (in JUN mice) or suppression (in JUN and WT mice), respectively. Vehicle only was used for control.
(§4) Recruitment of Human Specimens. Human abdominal adhesion and control specimens were obtained at the Stanford Hospital under Stanford University's IRB approval. Clinical inclusion criteria were as follows: For adhesion specimens—patients must have had at least one prior abdominal surgery, for control specimens—patients must have had no history of prior abdominal surgery. […] Cells were counted and re-suspended in FACS buffer. […]

phospho-STAT5 [4] = assay: as above; conditions: applied intra-abdominally (10 uM in DMSO, locally at time of adhesion surgery), wild-type and JUN mice, 24 hours, versus vehicle control (FIG. 5d, 22b)
Method: as §2, §3, §4

[5] = system: abdominal adhesion formation; assay: Mouse model for abdominal adhesions, gross and histologic scoring of adhesion tissue; format: in vivo; conditions: local application at surgery, JUN and wild-type mice
Method: (§5) Mouse Model for Adhesions. A similar model for abdominal adhesion formation has been described previously by our laboratory. In brief, mice were anesthetized with inhaled isoflurane (Henry Schein Animal Health,) at a concentration of 1-2% in oxygen at 3 L/min. Ophthalmic ointment (Puralube petrolatum, Dechra Veterinary Products) was applied to the cornea to prevent desiccation. Buprenorphine (Buprenex, Reckitt Benckiser Pharmaceuticals Inc.) was administered subcutaneously prior to the surgery at a dose of 0.1 mg/kg. The mice were placed in the supine position on a clean operating surface. A heating pad was used beneath the surgical field to keep the animals warm throughout the procedure. The abdomens were shaved, and the skin of the abdomen was sterilized with three applications of betadine followed by 70% ethanol. During the procedure, the respiratory rate of the animals was monitored, and the isoflurane was titrated accordingly. A vertical midline skin incision was made in the abdomen with sharp scissors. The underlying abdominal wall was then opened vertically. The cecum was located and exteriorized. The cecal wall was abraded gently with 150-grit sandpaper. […] The animals were monitored during recovery from anesthesia. […]

PDGFRA = assay: Immunofluorescent staining of adhesion tissue after in vivo JUN inhibition; design: species or system mouse; conditions: IF staining of adhesion tissue, JUN mice induced with doxycycline (FIG. 6e)
Method: as §5

phospho-JUN [6] = assay: as above; design: species or system mouse; conditions: IF staining of adhesion tissue, JUN mice induced with doxycycline, versus vehicle control (FIG. 6e-f)
Method: as §5

O=C(O)CCc1cc(C(=O)c2ccc(OC3CCCC3)cc2O)ccc1OCc1ccc2c(=O)[nH]oc2c1 [T-5224, 3-[5-(4-Cyclopentyloxy-2-hydroxybenzoyl)-2-[(3-oxo-1,2-benzoxazol-6-yl)methoxy]phenyl]propanoic acid]
phospho-JUN expression (phospho-JUN [1]): significantly reduced
phospho-STAT5 expression (phospho-STAT5 [2]): significantly reduced
phospho-JUN expression (phospho-JUN [3]): significantly decreased
phospho-JUN expression (phospho-JUN [3]; listed as JUN inhibitor): significant decrease
phospho-STAT5 expression (phospho-STAT5 [4]): significantly decreased
phospho-STAT5 expression (phospho-STAT5 [4]; listed as JUN inhibitor): significant decrease
adhesions, histologic assessment ([5]; H&E and trichrome, versus vehicle control (FIG. 6a-d)): significantly thinner and less fibrotic
adhesion formation, gross assessment ([5]; POD3, versus vehicle control (FIG. 5e-f)): dramatic decrease
PDGFRA expression in adhesion tissue (PDGFRA): Co-suppression
JUN expression at the tissue level (p-JUN+ cells) (phospho-JUN [6]): decreased

Reference: patent US12673043B2, “Use of inhibitors of the activator protein 1 (AP-1) for preventing adhesions” (The Board of Trustees of the Leland Stanford Junior …, priority 2020, dated 2026)
